In assay [1] the target is T1, DNA topoisomerase 1 (Homo sapiens) (UniProt P11387).
T1 sequence (whole entry): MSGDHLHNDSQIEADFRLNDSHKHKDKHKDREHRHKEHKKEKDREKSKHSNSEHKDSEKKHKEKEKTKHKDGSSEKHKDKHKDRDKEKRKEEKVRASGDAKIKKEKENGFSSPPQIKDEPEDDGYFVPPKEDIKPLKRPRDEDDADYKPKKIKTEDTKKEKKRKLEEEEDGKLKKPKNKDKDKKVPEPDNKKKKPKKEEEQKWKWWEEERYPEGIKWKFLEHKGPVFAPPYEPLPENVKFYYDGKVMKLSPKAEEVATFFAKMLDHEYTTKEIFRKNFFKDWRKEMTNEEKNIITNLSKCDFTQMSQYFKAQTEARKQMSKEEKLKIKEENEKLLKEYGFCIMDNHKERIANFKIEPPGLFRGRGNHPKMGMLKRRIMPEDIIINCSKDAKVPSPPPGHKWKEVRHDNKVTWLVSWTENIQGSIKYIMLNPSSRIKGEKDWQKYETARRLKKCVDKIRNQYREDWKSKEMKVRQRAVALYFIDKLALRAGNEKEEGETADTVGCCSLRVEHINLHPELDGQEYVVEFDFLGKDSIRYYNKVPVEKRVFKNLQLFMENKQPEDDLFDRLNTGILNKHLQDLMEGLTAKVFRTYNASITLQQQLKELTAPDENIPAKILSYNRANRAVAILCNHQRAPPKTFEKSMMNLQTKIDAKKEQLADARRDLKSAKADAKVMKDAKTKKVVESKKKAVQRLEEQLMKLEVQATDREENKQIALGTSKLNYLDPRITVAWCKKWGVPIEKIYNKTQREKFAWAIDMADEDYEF
Description: Inhibition of recombinant human topoisomerase 1 assessed as relaxation of supercoiled plasmid DNA pBR322 at 100 uM incubated for 30 mins by agarose gel electrophoresis.

The target in assay [2] is DNA topoisomerase 2-alpha (Homo sapiens) (UniProt P11388). Description: Inhibition of recombinant human topoisomerase 2alpha assessed as relaxation of supercoiled plasmid DNA pBR322 at 100 uM incubated for 30 mins by agarose gel electrophoresis.
DNA topoisomerase 2-alpha (Homo sapiens), sequence (P11388 whole entry): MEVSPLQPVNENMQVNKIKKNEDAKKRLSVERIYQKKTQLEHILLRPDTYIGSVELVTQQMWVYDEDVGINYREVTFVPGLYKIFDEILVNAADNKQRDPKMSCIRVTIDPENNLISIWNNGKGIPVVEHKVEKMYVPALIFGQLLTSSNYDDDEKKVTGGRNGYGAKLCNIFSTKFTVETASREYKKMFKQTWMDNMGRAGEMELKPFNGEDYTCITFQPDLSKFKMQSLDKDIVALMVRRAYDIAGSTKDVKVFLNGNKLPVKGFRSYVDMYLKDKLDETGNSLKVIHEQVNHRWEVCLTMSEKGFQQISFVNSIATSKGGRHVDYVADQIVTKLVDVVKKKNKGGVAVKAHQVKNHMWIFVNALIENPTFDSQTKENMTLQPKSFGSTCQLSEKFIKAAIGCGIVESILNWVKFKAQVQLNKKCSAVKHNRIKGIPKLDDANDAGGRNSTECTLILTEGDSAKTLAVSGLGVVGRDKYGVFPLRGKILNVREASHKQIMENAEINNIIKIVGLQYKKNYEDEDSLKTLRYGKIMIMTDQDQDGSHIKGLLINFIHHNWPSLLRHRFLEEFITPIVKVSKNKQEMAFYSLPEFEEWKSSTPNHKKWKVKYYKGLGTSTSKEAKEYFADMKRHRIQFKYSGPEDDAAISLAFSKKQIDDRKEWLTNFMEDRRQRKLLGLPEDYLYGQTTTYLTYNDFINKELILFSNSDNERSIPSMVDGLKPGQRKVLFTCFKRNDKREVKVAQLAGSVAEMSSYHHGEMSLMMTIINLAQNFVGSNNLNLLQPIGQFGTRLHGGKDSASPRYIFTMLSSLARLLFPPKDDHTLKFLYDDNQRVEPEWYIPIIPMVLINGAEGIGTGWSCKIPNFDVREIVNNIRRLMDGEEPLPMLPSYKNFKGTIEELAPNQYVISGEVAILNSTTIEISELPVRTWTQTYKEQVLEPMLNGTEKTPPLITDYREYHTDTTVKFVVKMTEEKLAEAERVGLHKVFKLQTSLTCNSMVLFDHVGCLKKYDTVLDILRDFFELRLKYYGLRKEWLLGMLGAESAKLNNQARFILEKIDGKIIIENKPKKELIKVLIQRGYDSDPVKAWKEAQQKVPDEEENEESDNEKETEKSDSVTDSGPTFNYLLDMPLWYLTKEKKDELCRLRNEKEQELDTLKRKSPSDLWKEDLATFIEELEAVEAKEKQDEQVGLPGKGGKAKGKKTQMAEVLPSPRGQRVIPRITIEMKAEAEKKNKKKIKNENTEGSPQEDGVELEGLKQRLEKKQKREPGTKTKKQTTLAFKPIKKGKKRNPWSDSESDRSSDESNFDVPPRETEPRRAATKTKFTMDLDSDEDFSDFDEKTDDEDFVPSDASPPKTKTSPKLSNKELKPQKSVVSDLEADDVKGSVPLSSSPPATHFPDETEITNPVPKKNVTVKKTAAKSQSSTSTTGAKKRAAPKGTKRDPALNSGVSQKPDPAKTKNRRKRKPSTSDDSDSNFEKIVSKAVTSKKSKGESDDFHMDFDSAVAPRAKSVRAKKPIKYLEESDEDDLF
In assay [3] the test system is T47D. Description: Cytotoxicity against human T47D cells measured after 2 days by MTT assay. The note with it: 48 h. The class given is functional, cell-based. Background: Formazan colour is commonly taken as a measure of viable cells.
Assay [4] deals with T1, DNA topoisomerase 1 (Homo sapiens). Description: Potency index, ratio of compound activity to CPT activity for inhibition of recombinant human topoisomerase 1 at 20 uM.
Assay [5] has as its system HeLa. Description: Cytotoxicity against human HeLa cells measured after 2 days by MTT assay. The class given is functional, cell-based. The settings on record: 48 h.
Assay [6] deals with T1, DNA topoisomerase 1 (Homo sapiens). Description: Potency index, ratio of compound activity to CPT activity for inhibition of recombinant human topoisomerase 1 at 100 uM.
Assay [7] shares this target. Description: Inhibition of recombinant human topoisomerase 1 assessed as relaxation of supercoiled plasmid DNA pBR322 at 20 uM incubated for 30 mins by agarose gel electrophoresis.
The subject of assay [8] is HCT-15. Description: Cytotoxicity against human HCT15 cells measured after 2 days by MTT assay. The format is functional, cell-based. The note with it: HCT-15, 48 h.
Assay [9] addresses DNA topoisomerase 2-alpha (Homo sapiens) (UniProt P11388). Description: Potency index, ratio of compound activity to etoposide activity for inhibition of recombinant human topoisomerase 2alpha at 100 uM.

Bounds are passed on as bounds.

The term inhibition denotes the relative decrease from the control value, in per cent. The IC50 is the concentration at which inhibition is half-maximal. Higher therefore signals a need for much substance. For the compound `Cc1ccc2nc(-c3cccc(F)c3)[nH]c(=O)c2c1`, the inhibition stood at 82.9% in [1], 0% in [2] and 0.2% in [7]. Besides, the IC50 in [3], in assay [5] and in assay [8] was > 50 µM each time. In addition, the figures for the Ratio in assay [4] and in assay [6] were 0.01 and 1.03, respectively.
For `Cc1ccc2c(=O)[nH]c(-c3cccc4ccccc34)nc2c1`, the inhibition is 100% in assay [1], 0% in [2] and 60.1% in [7]. Also, the IC50 in assay [3] is > 50 µM; in [5] it was > 50 µM; in assay [8], 23.3 µM. In addition, the Ratio in assay [4] came out at 1.95; in assay [6], 1.29.
For the compound `CCN(CC)c1ccc2nc(-c3ccccc3N(C)C)[nH]c(=O)c2c1`, the inhibition came to 82.1% in [1], 0% in [2] and 0% in assay [7]. For the same compound, the results for the IC50 in [3], in [5] and in assay [8] were 2.21 µM, 0.07 µM and 4.2 µM, respectively. The Ratio in assay [6] amounted to 0.99.
In the case of `Cc1ccc2nc(-c3ccccc3OC(F)(F)F)[nH]c(=O)c2c1`, the inhibition in assay [1] was found to be 66.9%; in assay [2], 5.47%; in assay [7], 0%. In addition, the half-maximal inhibitory concentration (IC50) in assay [3] was > 50 µM; in [5], 0.85 µM; in [8], 2.79 µM. In addition, the Ratio in [9] was 0.06; in assay [6] it was 0.83.
For `Cc1ccc2c(=O)[nH]c(-c3cccc(F)c3)nc2c1`, the figures for the inhibition in [1], in assay [2] and in assay [7] were 77.5%, 9.6% and 4.3%, respectively. In addition, the half-inhibitory concentration (IC50) was > 50 µM in assay [3], > 50 µM in assay [5] and 14.4 µM in assay [8]. The Ratio came out at 0.16 in assay [4], 0.12 in [9] and 0.93 in assay [6].
Regarding `Cc1ccc2nc(-c3ccccc3F)[nH]c(=O)c2c1`, the results for the inhibition in assay [1], in assay [2] and in [7] were 67.9%, 0% and 36.3%, respectively. Moreover, the half-maximal inhibitory concentration (IC50) in assay [3], in assay [5] and in [8] was > 50 µM in each case. Also, the Ratio in assay [4] came out at 2.11; in [6], 0.84.
As to `Cc1ccc2nc(-c3ccccc3C)[nH]c(=O)c2c1`, the inhibition in assay [1] and in [2] was 0% throughout. In addition, the IC50 in assay [3] was > 50 µM; in assay [5] it was 4.58 µM; in assay [8], 11.7 µM.
Consider `Cc1ccc2nc(-c3cccc4ccccc34)[nH]c(=O)c2c1`, for which the inhibition in assay [1] was determined as 4.1%; in assay [2] it was 5.5%. The IC50 in assay [3] is > 50 µM; in assay [5] it was 5.36 µM; in assay [8], > 50 µM. For the same compound, the Ratio was determined as 0.06 in assay [9] and 0.05 in [6].
Regarding `Cc1ccc2c(=O)[nH]c(-c3ccccc3F)nc2c1`, the inhibition came out at 81.2% in assay [1], 0% in assay [2] and 0% in assay [7]. The concentration for half-maximal inhibition (IC50) in [3] is > 50 µM; in assay [5], 0.83 µM; in assay [8], 10.3 µM. For the same compound, in assay [6], the Ratio stood at 0.98.
For `CCN(CC)c1ccc2nc(-c3ccccc3OC(F)(F)F)[nH]c(=O)c2c1`, the inhibition in assay [1] turned out to be 81.2%; in [2], 0%; in assay [7], 0%. Also, the figures for the IC50 in assay [3], in [5] and in assay [8] were 1.67 µM, 0.04 µM and 1.71 µM, respectively. For the same compound, the Ratio in assay [6] amounted to 0.98.
For `CN(C)c1ccc2nc(-c3cccc4ccccc34)[nH]c(=O)c2c1`, the inhibition in [1] turned out to be 100%; in assay [2] it was 0%; in assay [7], 2.4%. Also, the IC50 in assay [3] was > 50 µM; in assay [5], 0.05 µM; in [8], 0.46 µM. The Ratio in [4] came to 0.14; in [6] it was 1.24.
`Cc1ccc2nc(-c3cccc(OC(F)(F)F)c3)[nH]c(=O)c2c1`: the values for the inhibition in [1], in [2] and in assay [7] were 98.6%, 0% and 0%, respectively. The concentration for half-maximal inhibition (IC50) in [3], in assay [5] and in assay [8] was > 50 µM in each case. Besides, in [6], the Ratio was 1.39.
Turning to `CC[C@@]1(O)C(=O)OCc2c1cc1n(c2=O)Cc2cc3ccccc3nc2-1` [CAMPTOTHECIN], the 50% inhibitory concentration (IC50) is 1.62 µM in assay [3], 1.59 µM in [5] and 6.08 µM in [8].
In the case of `COc1cccc(-c2nc3ccc(N4CCCCC4)cc3c(=O)[nH]2)c1OC`, the inhibition in assay [1] came out at 80.9%; in [2], 0%; in [7] it was 0%. Also, the 50% inhibitory concentration (IC50) in assay [3] was determined as 10.4 µM; in assay [5] it was 8.19 µM; in [8], 24.8 µM. Also, the Ratio in assay [6] came to 0.97.
As for `CCN(CC)c1ccc2nc(-c3cccc4ccccc34)[nH]c(=O)c2c1`, the inhibition was 90.4% in [1], 0% in assay [2] and 25.5% in [7]. For the same compound, the IC50 stood at 2.69 µM in assay [3], 0.004 µM in assay [5] and 3.21 µM in assay [8]. Further, the values for the Ratio in [4] and in assay [6] were 0.83 and 1.17, respectively.
On to `COc1cccc2c1C(=O)c1c(O)c3c(c(O)c1C2=O)C[C@@](O)(C(=O)CO)C[C@@H]3O[C@H]1C[C@H](N)[C@H](O)[C@H](C)O1` [DOXORUBICIN], for which the half-inhibitory concentration (IC50) came to 1.9 µM in [3], 0.52 µM in assay [5] and 3.33 µM in assay [8].
Consider `Cc1ccc2c(=O)[nH]c(-c3cccc(C(F)(F)F)c3)nc2c1`, for which the inhibition in assay [1] was found to be 100%; in assay [2], 0%; in assay [7], 93.6%. The IC50 in [3], in assay [5] and in assay [8] was > 50 µM throughout. Also, the Ratio in assay [4] was 3.04; in assay [6], 1.29.
As to `COc1cc([C@@H]2c3cc4c(cc3[C@@H](O[C@@H]3O[C@@H]5CO[C@@H](C)O[C@H]5[C@H](O)[C@H]3O)[C@H]3COC(=O)[C@H]23)OCO4)cc(OC)c1O` [ETOPOSIDE], the IC50 was 9.28 µM in [3], 7.6 µM in assay [5] and 5.54 µM in assay [8].
As for `Cc1ccc2c(=O)[nH]c(-c3ccccc3OC(F)(F)F)nc2c1`, the inhibition came out at 100% in [1], 0% in [2] and 100% in assay [7]. Besides, the figures for the half-maximal inhibitory concentration (IC50) in assay [3], in [5] and in [8] were > 50 µM, 18.3 µM and 15.9 µM, respectively. For the same compound, the results for the Ratio in assay [4] and in assay [6] were 3.25 and 1.29, respectively.
As for `Cc1ccc2c(=O)[nH]c(-c3cccc(OC(F)(F)F)c3)nc2c1`, the figures for the inhibition in assay [1], in [2] and in [7] were 77.2%, 0% and 0%, respectively. The concentration for half-maximal inhibition (IC50) in assay [3], in [5] and in assay [8] was > 50 µM in each case. Moreover, the Ratio in assay [6] worked out at 0.93.
As to `O=c1[nH]c(-c2cccc3ccccc23)nc2ccc(N3CCCCC3)cc12`, the inhibition in [1] came out at 100%; in [2] it was 0%; in [7], 33.4%. Also, the IC50 in [3] was > 50 µM; in assay [5] it was 0.33 µM; in assay [8] it was 2.24 µM. The Ratio in assay [4] amounted to 1.94; in [6] it was 1.24.

Source of the values: ChEMBL document CHEMBL3632492, “Substituted 2-arylquinazolinones: Design, synthesis, and evaluation of cytotoxicity and inhibition of topoisomerases” (Eur J Med Chem, 2015).
